Test results from patent US20120201802A1, “METHOD FOR PRODUCING REDUCED COENZYME Q10, METHOD FOR STABILIZING SAME, AND COMPOSITION COMPRISING SAME” (Keneka Corporation, priority 2009, published 2012).

Assays:
[1] = Reduction of oxidized coenzyme Q10 in limonene (Example 2, Comparative Example 2); details: after reaction, oxidized CoQ10 0.1 g + plant extract 1.0 g or compound 0.69 mmol, 85° C., 16 hr, nitrogen atmosphere
Protocol: While the present invention is explained in more detail in the following by referring to Examples, the present invention is not limited to those Examples alone. Moreover, the purity of reduced coenzyme Q10, the weight ratio of reduced coenzyme Q10/oxidized coenzyme Q10, and the like in the Examples were measured by the following HPLC analysis. […] To conveniently indicate the weight ratio of reduced coenzyme Q10 and oxidized coenzyme Q10 in the present Example, the ratio of reduced coenzyme Q10 to the total amount of coenzyme Q10 (total amount of oxidized coenzyme Q10 and reduced coenzyme Q10) is shown in percentage as a “weight ratio of reduced coenzyme Q10”. For example, “the weight ratio of reduced coenzyme Q10 is 20%” means that the weight ratio of reduced coenzyme Q10 and oxidized coenzyme Q10 is 20/80. • (HPLC analysis conditions) • column; SYMMETRY C18 (manufactured by Waters) 250 mm (length) 4.6 mm (inner diameter), • mobile phase; C2H5OH:CH3OH=4:3 (v:v), • detection wavelength; 210 nm, • flow rate; 1 ml/min, • retention time of reduced coenzyme Q10; 9.1 min, • retention time of oxidized coenzyme Q10; 13.3 min. […]

[2] = Reduction of oxidized coenzyme Q10 in Span 80/glycerol/Tween 80/MCT mixture (Example 3, Comparative Example 3); details: after reaction, oxidized CoQ10 0.1 g + plant extract 1.0 g or compound 0.69 mmol, 80° C., 16 hr, nitrogen atmosphere
Protocol: (§1) While the present invention is explained in more detail in the following by referring to Examples, the present invention is not limited to those Examples alone. Moreover, the purity of reduced coenzyme Q10, the weight ratio of reduced coenzyme Q10/oxidized coenzyme Q10, and the like in the Examples were measured by the following HPLC analysis. […] To conveniently indicate the weight ratio of reduced coenzyme Q10 and oxidized coenzyme Q10 in the present Example, the ratio of reduced coenzyme Q10 to the total amount of coenzyme Q10 (total amount of oxidized coenzyme Q10 and reduced coenzyme Q10) is shown in percentage as a “weight ratio of reduced coenzyme Q10”. For example, “the weight ratio of reduced coenzyme Q10 is 20%” means that the weight ratio of reduced coenzyme Q10 and oxidized coenzyme Q10 is 20/80. • (HPLC analysis conditions) • column; SYMMETRY C18 (manufactured by Waters) 250 mm (length) 4.6 mm (inner diameter), • mobile phase; C2H5OH:CH3OH=4:3 (v:v), • detection wavelength; 210 nm, • flow rate; 1 ml/min, • retention time of reduced coenzyme Q10; 9.1 min, • retention time of oxidized coenzyme Q10; 13.3 min.
Oxidized coenzyme Q10 crystal (0.1 g) and a component derived from a naturally-occurring substance described in Table 3 (plant extract, 1.0 g, 10-fold weight) or a compound (0.69 mmol) were respectively added to a mixture of Span 80 (0.12 g), glycerol (0.09 g), Tween 80 (1.49 g) and MCT (0.43 g), and the mixture was stirred at 80° C. for 16 hr under a nitrogen atmosphere.

[3] = Reduction of oxidized coenzyme Q10 in 99% ethanol (Example 1, Comparative Example 1); details: after reaction, oxidized CoQ10 0.1 g + plant extract 1.0 g (10-fold weight) or compound 0.69 mmol, 78° C., 16 hr, nitrogen atmosphere
Protocol: as §1
Oxidized coenzyme Q10 crystal (0.1 g) and a component derived from a naturally-occurring substance (plant extract, 1.0 g, 10-fold weight) described in Table 1 were respectively added to 99% ethanol (15 g), and the mixture was stirred at 78° C. for 16 hr under a nitrogen atmosphere.
Oxidized coenzyme Q10 crystal (0.1 g, 0.12 mmol) and the compound described in Table 1 (0.69 mmol) were respectively added to 99% ethanol (15 g), and the mixture was stirred at 78° C. for 16 hr under a nitrogen atmosphere.

Compound	weight ratio of reduced coenzyme Q10 [1] [%]	weight ratio of reduced coenzyme Q10 [2] [%]	weight ratio of reduced coenzyme Q10 [3] [%]
O=C1O[C@H]([C@@H](O)CO)C([O-])=C1O.[Na+] [L-sodium ascorbate]	1		
NC(=O)C1=CN([C@@H]2O[C@H](COP(=O)(O)OP(=O)(O)OC[C@H]3O[C@@H](n4cnc5c(N)ncnc54)[C@H](O)[C@@H]3O)[C@@H](O)[C@H]2O)C=CC1 [NADH]		0	2
O=C(O)CCCC[C@@H](S)CCS [R-dihydrolipoic acid]	1		
C[N+](C)(C)CC(O)CC(=O)[O-] (stereo not shown) [carnitine]		0	0
CC1=C(/C=C/C(C)=C/C=C/C(C)=C/C=O)C(C)(C)CCC1 [retinal]		3	4
Cc1c(C)c2c(c(C)c1O)CC[C@@](C)(CCC[C@H](C)CCC[C@H](C)CCCC(C)C)O2 [α-tocopherol]		0	
retinol acetate			4
